Reference: publication PMC10838953

Legend:
[1] = system: caspase-3 in 786-O cells; conditions: 72 h, compounds at 20 μM
[2] = system: p38 MAPK (T180/Y182); conditions: HEK293 cells; 48 h
[3] = system: MCF10A cells; conditions: high concentrations
[4] = system: CK2 in 786-O cells
[5] = target: ABL1(Q252H)-phosphorylated (Homo sapiens, UniProt P00519, Q252H); test: biochemical; conditions: read-out: %Ctrl @ 2000nM
[6] = target: ABL1-phosphorylated (Homo sapiens, UniProt P00519); test: biochemical; conditions: read-out: %Ctrl @ 2000nM
[7] = target: ACVR1 (Homo sapiens, UniProt Q04771); test: biochemical; conditions: read-out: %Ctrl @ 2000nM
[8] = target: ALK (Homo sapiens, UniProt Q9UM73); test: biochemical; conditions: read-out: %Ctrl @ 2000nM
[9] = target: CAMK1G (Homo sapiens, UniProt Q96NX5); test: biochemical; conditions: read-out: %Ctrl @ 2000nM
[10] = target: CDK3 (Homo sapiens, UniProt Q00526); test: biochemical; conditions: read-out: %Ctrl @ 2000nM
[11] = target: CDK8 (Homo sapiens, UniProt P49336); test: biochemical; conditions: read-out: %Ctrl @ 2000nM
[12] = target: DAPK3 (Homo sapiens, UniProt O43293); test: biochemical; conditions: read-out: %Ctrl @ 2000nM
[13] = target: EGFR(L747-T751del,Sins) (Homo sapiens, UniProt P00533, DEL747-750/T751S); test: biochemical; conditions: read-out: %Ctrl @ 2000nM
[14] = target: EIF2AK1 (Homo sapiens, UniProt Q9BQI3); test: biochemical; conditions: read-out: %Ctrl @ 2000nM
[15] = target: EPHA2 (Homo sapiens, UniProt P29317); test: biochemical; conditions: read-out: %Ctrl @ 2000nM
[16] = target: EPHB6 (Homo sapiens, UniProt O15197); test: biochemical; conditions: read-out: %Ctrl @ 2000nM
[17] = target: ERN1 (Homo sapiens, UniProt O75460); test: biochemical; conditions: read-out: %Ctrl @ 2000nM
[18] = target: GRK2 (Homo sapiens, UniProt P25098); test: biochemical; conditions: read-out: %Ctrl @ 2000nM
[19] = target: IKK-alpha (Homo sapiens, UniProt O15111); test: biochemical; conditions: read-out: %Ctrl @ 2000nM
[20] = target: KIT(D816H) (Homo sapiens, UniProt P10721, D816H); test: biochemical; conditions: read-out: %Ctrl @ 2000nM
[21] = target: MYO3B (Homo sapiens, UniProt Q8WXR4); test: biochemical; conditions: read-out: %Ctrl @ 2000nM
[22] = target: NDR2 (Homo sapiens, UniProt Q9Y2H1); test: biochemical; conditions: read-out: %Ctrl @ 2000nM
[23] = target: PCTK3 (Homo sapiens, UniProt Q07002); test: biochemical; conditions: read-out: %Ctrl @ 2000nM
[24] = target: PIK3CA(H1047L) (Homo sapiens, UniProt P42336, H1047L); test: biochemical; conditions: read-out: %Ctrl @ 2000nM
[25] = target: PIP5K1C (Homo sapiens, UniProt O60331); test: biochemical; conditions: read-out: %Ctrl @ 2000nM
[26] = target: PIP5K2B (Homo sapiens, UniProt P78356); test: biochemical; conditions: read-out: %Ctrl @ 2000nM
[27] = target: PLK1 (Homo sapiens, UniProt P53350); test: biochemical; conditions: read-out: %Ctrl @ 2000nM
[28] = target: PRKCD (Homo sapiens, UniProt Q05655); test: biochemical; conditions: read-out: %Ctrl @ 2000nM
[29] = target: PYK2 (Homo sapiens, UniProt Q14289); test: biochemical; conditions: read-out: %Ctrl @ 2000nM
[30] = target: RET (Homo sapiens, UniProt P07949); test: biochemical; conditions: read-out: %Ctrl @ 2000nM
[31] = target: RIOK1 (Homo sapiens, UniProt Q9BRS2); test: biochemical; conditions: read-out: %Ctrl @ 2000nM
[32] = target: RIPK1 (Homo sapiens, UniProt Q13546); test: biochemical; conditions: read-out: %Ctrl @ 2000nM
[33] = target: RIPK4 (Homo sapiens, UniProt P57078); test: biochemical; conditions: read-out: %Ctrl @ 2000nM
[34] = target: RSK1(Kin.Dom.2-C-terminal) (Homo sapiens, UniProt Q15418); test: biochemical; conditions: read-out: %Ctrl @ 2000nM
[35] = target: RSK3(Kin.Dom.1-N-terminal) (Homo sapiens, UniProt Q15349); test: biochemical; conditions: read-out: %Ctrl @ 2000nM
[36] = target: SIK2 (Homo sapiens, UniProt Q9H0K1); test: biochemical; conditions: read-out: %Ctrl @ 2000nM
[37] = target: SLK (Homo sapiens, UniProt Q9H2G2); test: biochemical; conditions: read-out: %Ctrl @ 2000nM
[38] = target: STK33 (Homo sapiens, UniProt Q9BYT3); test: biochemical; conditions: read-out: %Ctrl @ 2000nM
[39] = target: TLK1 (Homo sapiens, UniProt Q9UKI8); test: biochemical; conditions: read-out: %Ctrl @ 2000nM
[40] = target: TNK1 (Homo sapiens, UniProt Q13470); test: biochemical; conditions: read-out: %Ctrl @ 2000nM
[41] = target: TNNI3K (Homo sapiens, UniProt Q59H18); test: biochemical; conditions: read-out: %Ctrl @ 2000nM
[42] = target: WNK2 (Homo sapiens, UniProt Q9Y3S1); test: biochemical; conditions: read-out: %Ctrl @ 2000nM
[43] = target: YANK2 (Homo sapiens, UniProt Q9NY57); test: biochemical; conditions: read-out: %Ctrl @ 2000nM
YANK2, sequence (Q9NY57 whole entry): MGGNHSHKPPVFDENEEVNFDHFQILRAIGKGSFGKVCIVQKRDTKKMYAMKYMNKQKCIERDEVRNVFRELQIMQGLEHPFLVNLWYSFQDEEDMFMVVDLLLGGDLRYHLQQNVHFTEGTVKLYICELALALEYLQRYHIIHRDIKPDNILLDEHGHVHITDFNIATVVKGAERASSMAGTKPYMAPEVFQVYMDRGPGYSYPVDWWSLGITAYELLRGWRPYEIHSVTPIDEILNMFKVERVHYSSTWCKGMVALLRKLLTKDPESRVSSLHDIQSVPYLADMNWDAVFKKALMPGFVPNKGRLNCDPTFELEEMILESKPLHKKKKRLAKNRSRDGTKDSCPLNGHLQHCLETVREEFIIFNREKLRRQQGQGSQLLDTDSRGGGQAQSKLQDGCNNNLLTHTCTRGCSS

RIPK1, sequence (Q13546 whole entry): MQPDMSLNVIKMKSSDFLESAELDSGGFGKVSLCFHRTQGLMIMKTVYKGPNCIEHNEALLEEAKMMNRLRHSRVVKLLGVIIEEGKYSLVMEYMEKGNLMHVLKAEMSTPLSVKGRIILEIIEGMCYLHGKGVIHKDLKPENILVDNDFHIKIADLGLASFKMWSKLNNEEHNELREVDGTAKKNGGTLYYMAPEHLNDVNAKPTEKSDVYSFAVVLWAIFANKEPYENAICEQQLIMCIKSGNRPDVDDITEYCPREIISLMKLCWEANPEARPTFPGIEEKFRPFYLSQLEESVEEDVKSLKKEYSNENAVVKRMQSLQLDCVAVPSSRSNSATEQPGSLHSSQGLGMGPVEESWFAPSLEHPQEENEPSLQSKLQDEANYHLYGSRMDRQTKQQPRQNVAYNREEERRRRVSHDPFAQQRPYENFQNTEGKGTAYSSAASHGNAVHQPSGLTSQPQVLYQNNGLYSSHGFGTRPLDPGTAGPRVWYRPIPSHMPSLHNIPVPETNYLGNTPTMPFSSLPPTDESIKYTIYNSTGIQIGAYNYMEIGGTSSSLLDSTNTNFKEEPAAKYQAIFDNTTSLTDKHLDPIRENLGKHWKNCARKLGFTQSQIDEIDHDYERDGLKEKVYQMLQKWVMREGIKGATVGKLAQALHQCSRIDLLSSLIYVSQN
PCTK3, sequence (Q07002 whole entry): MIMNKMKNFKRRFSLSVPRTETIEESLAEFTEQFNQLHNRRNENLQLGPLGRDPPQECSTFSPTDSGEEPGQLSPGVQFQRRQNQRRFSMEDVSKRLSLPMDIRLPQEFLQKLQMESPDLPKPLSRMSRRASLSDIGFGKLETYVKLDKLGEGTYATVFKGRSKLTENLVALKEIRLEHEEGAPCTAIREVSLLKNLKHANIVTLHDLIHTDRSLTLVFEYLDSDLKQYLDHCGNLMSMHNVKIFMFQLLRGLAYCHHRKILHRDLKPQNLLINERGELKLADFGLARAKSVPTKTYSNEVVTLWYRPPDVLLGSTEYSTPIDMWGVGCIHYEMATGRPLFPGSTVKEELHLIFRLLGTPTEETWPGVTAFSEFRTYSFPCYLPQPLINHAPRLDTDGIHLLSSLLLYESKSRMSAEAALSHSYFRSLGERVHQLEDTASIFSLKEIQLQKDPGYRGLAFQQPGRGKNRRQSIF
MYO3B, sequence (Q8WXR4 whole entry): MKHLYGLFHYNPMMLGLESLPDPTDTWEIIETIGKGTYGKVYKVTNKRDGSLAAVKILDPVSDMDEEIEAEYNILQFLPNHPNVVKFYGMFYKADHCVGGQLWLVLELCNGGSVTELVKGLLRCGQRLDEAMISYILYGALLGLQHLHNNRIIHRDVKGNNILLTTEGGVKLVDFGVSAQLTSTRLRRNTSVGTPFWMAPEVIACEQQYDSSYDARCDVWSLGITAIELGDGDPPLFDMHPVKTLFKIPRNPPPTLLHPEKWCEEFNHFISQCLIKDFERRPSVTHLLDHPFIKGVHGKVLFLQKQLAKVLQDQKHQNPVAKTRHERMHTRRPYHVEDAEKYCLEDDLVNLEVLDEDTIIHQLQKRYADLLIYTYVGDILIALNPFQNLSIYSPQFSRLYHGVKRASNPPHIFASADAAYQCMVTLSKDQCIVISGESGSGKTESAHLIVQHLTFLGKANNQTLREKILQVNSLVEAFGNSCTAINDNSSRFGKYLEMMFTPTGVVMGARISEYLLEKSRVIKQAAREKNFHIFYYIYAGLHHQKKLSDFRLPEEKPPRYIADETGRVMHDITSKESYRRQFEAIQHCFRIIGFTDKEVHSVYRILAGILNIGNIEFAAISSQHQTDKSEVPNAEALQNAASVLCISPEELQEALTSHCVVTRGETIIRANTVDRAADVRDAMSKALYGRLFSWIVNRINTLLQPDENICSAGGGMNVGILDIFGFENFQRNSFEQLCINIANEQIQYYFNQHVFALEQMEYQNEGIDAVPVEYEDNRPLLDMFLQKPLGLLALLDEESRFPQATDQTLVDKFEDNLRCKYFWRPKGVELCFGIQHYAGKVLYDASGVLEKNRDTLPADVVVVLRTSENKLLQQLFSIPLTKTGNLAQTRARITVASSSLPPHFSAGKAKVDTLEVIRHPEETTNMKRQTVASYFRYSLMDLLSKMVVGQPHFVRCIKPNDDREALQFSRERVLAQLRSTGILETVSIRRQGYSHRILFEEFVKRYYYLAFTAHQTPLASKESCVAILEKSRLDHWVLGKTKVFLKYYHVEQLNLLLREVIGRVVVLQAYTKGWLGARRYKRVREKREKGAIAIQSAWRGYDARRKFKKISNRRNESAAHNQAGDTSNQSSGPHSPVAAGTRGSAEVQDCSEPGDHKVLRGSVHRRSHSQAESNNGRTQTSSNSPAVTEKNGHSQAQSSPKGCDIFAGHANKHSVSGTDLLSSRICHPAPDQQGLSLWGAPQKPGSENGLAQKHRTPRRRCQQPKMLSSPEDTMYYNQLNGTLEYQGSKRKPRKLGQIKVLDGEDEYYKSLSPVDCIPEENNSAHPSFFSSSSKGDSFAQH
KIT(D816H), sequence (P10721 26-976 D816H): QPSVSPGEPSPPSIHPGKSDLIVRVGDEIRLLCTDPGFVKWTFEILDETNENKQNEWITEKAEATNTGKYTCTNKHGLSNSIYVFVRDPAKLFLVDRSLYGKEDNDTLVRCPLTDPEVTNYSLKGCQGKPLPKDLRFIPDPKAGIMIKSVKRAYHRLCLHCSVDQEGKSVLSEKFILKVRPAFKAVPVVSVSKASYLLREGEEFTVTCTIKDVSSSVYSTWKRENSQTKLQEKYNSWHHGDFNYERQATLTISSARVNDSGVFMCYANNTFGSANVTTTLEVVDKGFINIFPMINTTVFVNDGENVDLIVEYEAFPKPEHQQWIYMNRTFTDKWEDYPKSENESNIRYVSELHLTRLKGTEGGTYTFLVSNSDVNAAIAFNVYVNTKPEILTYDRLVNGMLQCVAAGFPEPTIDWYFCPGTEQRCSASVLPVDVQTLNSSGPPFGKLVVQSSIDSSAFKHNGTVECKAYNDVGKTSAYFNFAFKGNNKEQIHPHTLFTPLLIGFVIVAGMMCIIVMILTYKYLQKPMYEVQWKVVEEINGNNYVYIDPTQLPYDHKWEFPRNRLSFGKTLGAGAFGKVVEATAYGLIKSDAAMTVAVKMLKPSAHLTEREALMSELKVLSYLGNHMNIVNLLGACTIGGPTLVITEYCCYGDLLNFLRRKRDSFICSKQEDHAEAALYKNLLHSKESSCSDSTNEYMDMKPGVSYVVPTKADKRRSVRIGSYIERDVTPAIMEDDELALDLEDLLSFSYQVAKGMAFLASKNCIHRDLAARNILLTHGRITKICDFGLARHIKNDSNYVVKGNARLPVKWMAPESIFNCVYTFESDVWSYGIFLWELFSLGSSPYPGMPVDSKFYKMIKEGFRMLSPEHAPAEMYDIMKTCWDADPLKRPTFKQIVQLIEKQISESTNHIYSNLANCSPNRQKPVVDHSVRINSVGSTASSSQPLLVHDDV
RIOK1, sequence (Q9BRS2 whole entry): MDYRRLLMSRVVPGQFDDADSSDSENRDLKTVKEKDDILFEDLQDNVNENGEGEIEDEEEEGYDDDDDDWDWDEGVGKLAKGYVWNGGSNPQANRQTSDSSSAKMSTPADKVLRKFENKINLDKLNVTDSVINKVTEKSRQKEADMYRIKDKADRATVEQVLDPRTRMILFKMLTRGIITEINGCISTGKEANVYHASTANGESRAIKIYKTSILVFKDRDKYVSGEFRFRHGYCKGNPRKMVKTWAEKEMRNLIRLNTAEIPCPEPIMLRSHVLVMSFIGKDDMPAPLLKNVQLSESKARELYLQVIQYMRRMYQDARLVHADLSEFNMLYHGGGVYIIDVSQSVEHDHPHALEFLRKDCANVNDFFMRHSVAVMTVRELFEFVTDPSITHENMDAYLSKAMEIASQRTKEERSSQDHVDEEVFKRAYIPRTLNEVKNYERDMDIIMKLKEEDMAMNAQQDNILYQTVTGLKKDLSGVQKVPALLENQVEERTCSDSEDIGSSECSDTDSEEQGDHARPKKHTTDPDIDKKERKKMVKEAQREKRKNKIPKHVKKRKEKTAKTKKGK
PLK1, sequence (P53350 whole entry): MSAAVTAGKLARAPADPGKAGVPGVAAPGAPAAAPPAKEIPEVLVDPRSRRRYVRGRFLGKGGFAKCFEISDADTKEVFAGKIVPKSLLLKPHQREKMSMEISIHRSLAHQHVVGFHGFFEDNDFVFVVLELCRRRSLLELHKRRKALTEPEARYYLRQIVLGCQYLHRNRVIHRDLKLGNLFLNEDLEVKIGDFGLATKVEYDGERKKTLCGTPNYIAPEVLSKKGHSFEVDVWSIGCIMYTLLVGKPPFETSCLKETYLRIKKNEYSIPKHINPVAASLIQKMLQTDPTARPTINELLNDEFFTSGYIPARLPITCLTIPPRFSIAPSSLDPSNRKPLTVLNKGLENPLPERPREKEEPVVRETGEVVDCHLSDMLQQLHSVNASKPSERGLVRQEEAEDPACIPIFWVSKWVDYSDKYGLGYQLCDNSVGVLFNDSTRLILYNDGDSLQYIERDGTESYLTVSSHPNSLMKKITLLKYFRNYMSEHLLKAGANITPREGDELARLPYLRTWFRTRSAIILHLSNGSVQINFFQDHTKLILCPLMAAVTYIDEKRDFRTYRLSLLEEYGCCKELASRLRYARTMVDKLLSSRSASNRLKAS

## CC(C)COC(=O)c1[nH]c2ccc(F)cc2c1-c1cn(CC2CCN(CCNS(=O)(=O)c3ccc(CC(C)C)cc3)CC2)nn1 [AB668, isobutyl 5-fluoro-3-(1-((1-(2-((4-isobutylphenyl)sulfonamido)ethyl)piperidin-4-yl)methyl)-1H-1,2,3-triazol-4-yl)-1H-indole-2-carboxylate]
[1]
  caspase-3 activation: induced caspase-3 activation
[2]
  p38 activation: activated in both cell types
[3]
  cytotoxicity: no cytotoxicity
[4]
  CK2 inhibition 8 h after inhibitor removal: persisted
[5]
  remaining activity at 2 µM: 86%
[6]
  remaining activity at 2 µM: 82%
[7]
  remaining activity at 2 µM: 100%
[8]
  remaining activity at 2 µM: 91%
[9]
  remaining activity at 2 µM: 80%
[10]
  remaining activity at 2 µM: 100%
[11]
  remaining activity at 2 µM: 81%
[12]
  remaining activity at 2 µM: 100%
[13]
  remaining activity at 2 µM: 86%
[14]
  remaining activity at 2 µM: 88%
[15]
  remaining activity at 2 µM: 92%
[16]
  remaining activity at 2 µM: 82%
[17]
  remaining activity at 2 µM: 100%
[18]
  remaining activity at 2 µM: 100%
[19]
  remaining activity at 2 µM: 100%
[20]
  remaining activity at 2 µM: 58%
[21]
  remaining activity at 2 µM: 100%
[22]
  remaining activity at 2 µM: 100%
[23]
  remaining activity at 2 µM: 91%
[24]
  remaining activity at 2 µM: 98%
[25]
  remaining activity at 2 µM: 87%
[26]
  remaining activity at 2 µM: 100%
[27]
  remaining activity at 2 µM: 100%
[28]
  remaining activity at 2 µM: 91%
[29]
  remaining activity at 2 µM: 95%
[30]
  remaining activity at 2 µM: 87%
[31]
  remaining activity at 2 µM: 80%
[32]
  remaining activity at 2 µM: 96%
[33]
  remaining activity at 2 µM: 100%
[34]
  remaining activity at 2 µM: 100%
[35]
  remaining activity at 2 µM: 93%
[36]
  remaining activity at 2 µM: 100%
[37]
  remaining activity at 2 µM: 100%
[38]
  remaining activity at 2 µM: 67%
[39]
  remaining activity at 2 µM: 100%
[40]
  remaining activity at 2 µM: 96%
[41]
  remaining activity at 2 µM: 96%
[42]
  remaining activity at 2 µM: 87%
[43]
  remaining activity at 2 µM: 76%
